In US11083725B2 (priority 2014, dated 2021):

Tested on: NHBE cells
Test: Biolog metabolic array: substrate use by NHBE cells with or without CA09 infection
Assay type: cell-based, human
Conditions: for Substrate use, 590 nm absorbance normalized to zero hour, 0 hr: Biolog PMM2, 0 hr; for Substrate use, 590 nm absorbance normalized to zero hour, 1 hr: Biolog PMM2, 1 hr; for Substrate use, 590 nm absorbance normalized to zero hour, 5 hr: Biolog PMM2, 5 hr; for Substrate use, 590 nm absorbance normalized to zero hour, 7 hr: Biolog PMM2, 7 hr
[1] = Control (uninfected) NHBE cells
[2] = Virus (CA09-infected, MOI 1) NHBE cells
[3] = Virus: CA09-infected NHBE cells, MOI 1, Biolog PMM2
[4] = Virus (CA09, MOI 1) infected NHBE cells
[5] = Virus (CA09-infected NHBE cells, MOI 1)

In the case of `O=C(O)C[C@H](O)C(=O)O` [L-Malic Acid], the “590 nm absorbance normalized to zero hour (substrate use), 0 hr” value [1] is reported as 1.00, the “590 nm absorbance normalized to zero hour (substrate use), 1 hr” value [1] is reported as 1.11 and the “590 nm absorbance normalized to zero hour (substrate use), 2 hr” value (shortened to “590 nm absorbance normalized … 2 hr”) [1] is reported as 1.27. For the same compound, the “590 nm absorbance normalized to zero hour (substrate use), 3 hr” value (from here on “590 nm absorbance normalized … 3 hr”) [1] was 1.37, the “590 nm absorbance normalized to zero hour (substrate use), 4 hr” value (“590 nm absorbance normalized … 4 hr” for short) [1] was 1.35 and the “590 nm absorbance normalized to zero hour (substrate use), 6 hr” value (“590 nm absorbance normalized … 6 hr” for short) [1] was 0.72. For the same compound, the “590 nm absorbance normalized to zero hour (substrate use), 8 hr” value (“590 nm absorbance normalized … 8 hr” for short) [1] was 1.35, the “590 nm absorbance normalized to zero hour (substrate use), 9 hr” value (“590 nm absorbance normalized … 9 hr” for short) [1] was 1.39 and the “590 nm absorbance normalized to zero hour (substrate use), 10 hr” value (“590 nm absorbance normalized … 10 hr” for short) [1] was 1.37. The “590 nm absorbance normalized to zero hour (substrate use), 11 hr” value (from here on “590 nm absorbance normalized … 11 hr”) [1] was 1.43, the “Substrate use, 590 nm absorbance normalized to zero hour, 0 hr” value [1] was 1.00 and the “Substrate use, 590 nm absorbance normalized to zero hour, 1 hr” value [1] was 1.11. The “Substrate use, 590 nm absorbance normalized to zero hour, 5 hr” value [1] was 1.41, the “Substrate use, 590 nm absorbance normalized to zero hour, 7 hr” value [1] was 1.33 and the “590 nm absorbance normalized to zero hour (substrate use), 0 hr” value [2] was 1.00. For the same compound, the “590 nm absorbance normalized to zero hour (substrate use), 1 hr” value [2] was 1.48, the “590 nm absorbance normalized … 2 hr” value [2] was 1.19 and the “590 nm absorbance normalized … 3 hr” value [2] was 1.27. The “590 nm absorbance normalized … 4 hr” value [2] was 3.32, the “590 nm absorbance normalized to zero hour (substrate use), 5 hr” value [2] was 1.59 and the “590 nm absorbance normalized … 6 hr” value [2] was 1.42. For the same compound, the “590 nm absorbance normalized to zero hour (substrate use), 7 hr” value [2] was 2.93, the “590 nm absorbance normalized … 8 hr” value [2] was 3.48 and the “590 nm absorbance normalized … 9 hr” value [2] was 1.72. For the same compound, the “590 nm absorbance normalized … 10 hr” value [2] was 2.20, the “590 nm absorbance normalized … 11 hr” value [2] was 2.05 and the “590 nm absorbance normalized to zero hour (substrate use), 0 hr” value [3] was 1.00. For the same compound, the “590 nm absorbance normalized to zero hour (substrate use), 1 hr” value [3] was 1.48, the “590 nm absorbance normalized … 2 hr” value [3] was 1.19 and the “590 nm absorbance normalized … 3 hr” value [3] was 1.27. The “590 nm absorbance normalized … 4 hr” value [3] was 3.32, the “590 nm absorbance normalized to zero hour (substrate use), 5 hr” value [3] was 1.59 and the “590 nm absorbance normalized … 6 hr” value [3] was 1.42. For the same compound, the “590 nm absorbance normalized to zero hour (substrate use), 7 hr” value [3] was 2.93, the “590 nm absorbance normalized … 8 hr” value [3] was 3.48 and the “590 nm absorbance normalized … 9 hr” value [3] was 1.72. For the same compound, the “590 nm absorbance normalized … 10 hr” value [3] was 2.20 and the “590 nm absorbance normalized … 11 hr” value [3] was 2.05.

With `CO[C@H]1O[C@H](CO)[C@@H](O)[C@H](O)[C@H]1O` [a-Methyl-D-Glucoside] the “590 nm absorbance normalized to zero hour (substrate use), 0 hr” value [1] was 1.00, the “590 nm absorbance normalized to zero hour (substrate use), 1 hr” value [1] was 1.18 and the “590 nm absorbance normalized … 2 hr” value [1] was 1.07. The “590 nm absorbance normalized … 3 hr” value [1] was 1.02, the “590 nm absorbance normalized … 4 hr” value [1] was 0.58 and the “590 nm absorbance normalized … 6 hr” value [1] was 0.90. The “590 nm absorbance normalized … 8 hr” value [1] was 0.74, the “590 nm absorbance normalized … 9 hr” value [1] was 0.79 and the “590 nm absorbance normalized … 10 hr” value [1] was 0.83. For the same compound, the “590 nm absorbance normalized … 11 hr” value [1] was 0.93, the “Substrate use, 590 nm absorbance normalized to zero hour, 0 hr” value [1] was 1.00 and the “Substrate use, 590 nm absorbance normalized to zero hour, 1 hr” value [1] was 1.18. The “Substrate use, 590 nm absorbance normalized to zero hour, 5 hr” value [1] was 0.76, the “Substrate use, 590 nm absorbance normalized to zero hour, 7 hr” value [1] was 0.68 and the “Substrate use, 590 nm absorbance normalized to zero hour, 0 hr” value [4] was 1.00. For the same compound, the “Substrate use, 590 nm absorbance normalized to zero hour, 1 hr” value [4] was 1.29, the “Substrate use, 590 nm absorbance normalized to zero hour, 5 hr” value [4] was 2.31 and the “Substrate use, 590 nm absorbance normalized to zero hour, 7 hr” value [4] was 2.67. For the same compound, the “590 nm absorbance normalized to zero hour (substrate use), 0 hr” value [2] was 1.00, the “590 nm absorbance normalized to zero hour (substrate use), 1 hr” value [2] was 1.29 and the “590 nm absorbance normalized … 2 hr” value [2] was 1.66. The “590 nm absorbance normalized … 3 hr” value [2] was 1.87, the “590 nm absorbance normalized … 4 hr” value [2] was 1.99 and the “590 nm absorbance normalized … 6 hr” value [2] was 2.50. For the same compound, the “590 nm absorbance normalized … 8 hr” value [2] was 2.77, the “590 nm absorbance normalized … 9 hr” value [2] was 3.14 and the “590 nm absorbance normalized … 10 hr” value [2] was 3.10. For the same compound, the “590 nm absorbance normalized … 11 hr” value [2] was 3.31.

`Nc1ncnc2c1ncn2[C@@H]1O[C@H](CO)[C@@H](O)[C@H]1O` [Adenosine] was tested, and the “590 nm absorbance normalized to zero hour (substrate use), 1 hr” value [1] was 2.85, the “590 nm absorbance normalized … 2 hr” value [1] was 1.34 and the “590 nm absorbance normalized … 3 hr” value [1] was 1.67. For the same compound, the “590 nm absorbance normalized … 4 hr” value [1] was 1.86, the “590 nm absorbance normalized … 6 hr” value [1] was 2.50 and the “590 nm absorbance normalized … 8 hr” value [1] was 3.10. For the same compound, the “590 nm absorbance normalized … 9 hr” value [1] was 3.78, the “590 nm absorbance normalized … 10 hr” value [1] was 3.46 and the “590 nm absorbance normalized … 11 hr” value [1] was 3.32. For the same compound, the “Substrate use, 590 nm absorbance normalized to zero hour, 1 hr” value [1] was 2.85, the “Substrate use, 590 nm absorbance normalized to zero hour, 5 hr” value [1] was 2.21 and the “Substrate use, 590 nm absorbance normalized to zero hour, 7 hr” value [1] was 2.97. For the same compound, the “590 nm absorbance normalized to zero hour (substrate use), 1 hr” value [5] was 1.39, the “590 nm absorbance normalized … 2 hr” value [5] was 1.23 and the “590 nm absorbance normalized … 3 hr” value [5] was 1.60. For the same compound, the “590 nm absorbance normalized … 4 hr” value [5] was 1.77, the “590 nm absorbance normalized to zero hour (substrate use), 5 hr” value [5] was 1.96 and the “590 nm absorbance normalized … 6 hr” value [5] was 2.16. For the same compound, the “590 nm absorbance normalized to zero hour (substrate use), 7 hr” value [5] was 2.38, the “590 nm absorbance normalized … 8 hr” value [5] was 2.56 and the “590 nm absorbance normalized … 9 hr” value [5] was 2.88. For the same compound, the “590 nm absorbance normalized … 10 hr” value [5] was 2.56, the “590 nm absorbance normalized … 11 hr” value [5] was 2.60 and the “590 nm absorbance normalized to zero hour (substrate use), 1 hr” value [3] was 1.39. For the same compound, the “590 nm absorbance normalized … 2 hr” value [3] was 1.23, the “590 nm absorbance normalized … 3 hr” value [3] was 1.60 and the “590 nm absorbance normalized … 4 hr” value [3] was 1.77. For the same compound, the “590 nm absorbance normalized to zero hour (substrate use), 5 hr” value [3] was 1.96, the “590 nm absorbance normalized … 6 hr” value [3] was 2.16 and the “590 nm absorbance normalized to zero hour (substrate use), 7 hr” value [3] was 2.38. For the same compound, the “590 nm absorbance normalized … 8 hr” value [3] was 2.56, the “590 nm absorbance normalized … 9 hr” value [3] was 2.88 and the “590 nm absorbance normalized … 10 hr” value [3] was 2.56. The “590 nm absorbance normalized … 11 hr” value [3] was 2.60.

`O=P(O)(O)O[C@H]1O[C@H](CO)[C@@H](O)[C@H](O)[C@H]1O` [D-Glucose-1-Phosphate] was tested, and the “590 nm absorbance normalized to zero hour (substrate use), 0 hr” value [1] was 1.00, the “590 nm absorbance normalized to zero hour (substrate use), 1 hr” value [1] was 1.01 and the “590 nm absorbance normalized … 2 hr” value [1] was 1.31. The “590 nm absorbance normalized … 3 hr” value [1] was 1.24, the “590 nm absorbance normalized … 4 hr” value [1] was 1.16 and the “590 nm absorbance normalized … 6 hr” value [1] was 0.33. For the same compound, the “590 nm absorbance normalized … 8 hr” value [1] was 1.03, the “590 nm absorbance normalized … 9 hr” value [1] was 1.09 and the “590 nm absorbance normalized … 10 hr” value [1] was 1.06. For the same compound, the “590 nm absorbance normalized … 11 hr” value [1] was 0.93, the “Substrate use, 590 nm absorbance normalized to zero hour, 0 hr” value [1] was 1.00 and the “Substrate use, 590 nm absorbance normalized to zero hour, 1 hr” value [1] was 1.01. For the same compound, the “Substrate use, 590 nm absorbance normalized to zero hour, 5 hr” value [1] was 1.12, the “Substrate use, 590 nm absorbance normalized to zero hour, 7 hr” value [1] was 1.10 and the “Substrate use, 590 nm absorbance normalized to zero hour, 0 hr” value [4] was 1.00. For the same compound, the “Substrate use, 590 nm absorbance normalized to zero hour, 1 hr” value [4] was 1.74, the “Substrate use, 590 nm absorbance normalized to zero hour, 5 hr” value [4] was 3.94 and the “Substrate use, 590 nm absorbance normalized to zero hour, 7 hr” value [4] was 4.56. The “590 nm absorbance normalized to zero hour (substrate use), 0 hr” value [2] was 1.00, the “590 nm absorbance normalized to zero hour (substrate use), 1 hr” value [2] was 1.74 and the “590 nm absorbance normalized … 2 hr” value [2] was 2.39. The “590 nm absorbance normalized … 3 hr” value [2] was 2.86, the “590 nm absorbance normalized … 4 hr” value [2] was 3.20 and the “590 nm absorbance normalized … 6 hr” value [2] was 4.34. The “590 nm absorbance normalized … 8 hr” value [2] was 4.91, the “590 nm absorbance normalized … 9 hr” value [2] was 5.77 and the “590 nm absorbance normalized … 10 hr” value [2] was 5.49. For the same compound, the “590 nm absorbance normalized … 11 hr” value [2] was 6.50.
